Measured values published in patent US20240358693A1, “METHODS OF TREATING PAIN” (Aisa Pharma, Inc., priority 2023, published 2024).

Tested on: participants with SSc-RP
Assay: Scleroderma Health Assessment Questionnaire (SHAQ): disability indices and visual analog scales
Format: in vivo, human
Outline: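 Participants with SSc-RP completed the SHAQ at screening and each in-clinic visit. Standard and alternative disability indices (eight categories, 0–3; standard adjusts for aids/assistance) plus Raynaud's VAS on interference over the past 7 days. Reported as absolute change from baseline to end of each dosing period.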

[1] = Cilnidipine 10 mg, Day 12, PP Population Part A, SSc patients
[2] = Cilnidipine 10 mg, Day 12, PP Population, Part A
[3] = Cilnidipine 10 mg, PP Population Part A, SSc patients
[4] = Cilnidipine 20 mg (N = 3), Modified ITT, Part A
[5] = Cilnidipine 20 mg (N = 3), patients with diagnosis of SSc, sensitivity analysis, Modified ITT, Part A
[6] = Cilnidipine 20 mg (n = 3), Table R
[7] = Cilnidipine 20 mg (n = 3), mITT population
[8] = Cilnidipine 20 mg, Day 12, PP Population Part A, SSc patients
[9] = Cilnidipine 20 mg, Day 12, PP Population, Part A
[10] = Cilnidipine 20 mg, PP Population Part A, SSc patients

COCCOC(=O)C1=C(C)NC(C)=C(C(=O)OC/C=C/c2ccccc2)C1c1cccc([N+](=O)[O-])c1 (stereo not drawn) [Cilnidipine, cilnidipine]
SHAQ Visual Analogue Scale - Finger Ulcers, Change from Baseline, Mean [1]: −0.425
SHAQ Visual Analogue Scale - Finger Ulcers, Change from Baseline, Median [1]: −0.350
SHAQ Visual Analogue Scale - Finger Ulcers, Percent Change from Baseline, Mean [1]: −69.44%
SHAQ Visual Analogue Scale - Finger Ulcers, Percent Change from Baseline, Median [1]: −69.44%
SHAQ Visual Analogue Scale - Intestinal Problems, Change from Baseline, Mean [1]: −1.875
SHAQ Visual Analogue Scale - Intestinal Problems, Change from Baseline, Median [1]: −1.550
SHAQ Visual Analogue Scale - Intestinal Problems, Percent Change from Baseline, Mean [1]: −77.37%
SHAQ Visual Analogue Scale - Intestinal Problems, Percent Change from Baseline, Median [1]: −88.00%
SHAQ Visual Analogue Scale - Overall Disease Severity, Change from Baseline, Mean [1]: −0.900
SHAQ Visual Analogue Scale - Overall Disease Severity, Change from Baseline, Median [1]: −0.950
SHAQ Visual Analogue Scale - Overall Disease Severity, Percent Change from Baseline, Mean [1]: −56.96%
SHAQ Visual Analogue Scale - Overall Disease Severity, Percent Change from Baseline, Median [1]: −44.12%
SHAQ Visual Analogue Scale - Pain, Change from Baseline, Mean [1]: −0.100
SHAQ Visual Analogue Scale - Pain, Change from Baseline, Median [1]: 0.000
SHAQ Visual Analogue Scale - Pain, Percent Change from Baseline, Mean [1]: −9.88%
SHAQ Visual Analogue Scale - Pain, Percent Change from Baseline, Median [1]: 0.00%
SHAQ Visual Analogue Scale - Raynaud's, Change from Baseline, Mean [1]: 0.325
SHAQ Visual Analogue Scale - Raynaud's, Change from Baseline, Median [1]: 0.350
SHAQ Visual Analogue Scale - Raynaud's, Percent Change from Baseline, Mean [1]: 11.36%
SHAQ Visual Analogue Scale - Raynaud's, Percent Change from Baseline, Median [1]: −2.27%
SHAQ Alternative Disability Index: Change from Baseline, Mean [2]: 0.063
SHAQ Alternative Disability Index: Change from Baseline, Median [2]: 0.000
SHAQ Alternative Disability Index: In-Clinic Visit (Day 12), Mean [2]: 0.563
SHAQ Alternative Disability Index: In-Clinic Visit (Day 12), Median [2]: 0.500
SHAQ Alternative Disability Index: Percent Change from Baseline, Mean [2]: 15.87%
SHAQ Alternative Disability Index: Percent Change from Baseline, Median [2]: 15.87%
SHAQ Standard Disability Index: Change from Baseline, Mean [2]: 0.000
SHAQ Standard Disability Index: Change from Baseline, Median [2]: 0.000
SHAQ Standard Disability Index: In-Clinic Visit (Day 12), Mean [2]: 0.656
SHAQ Standard Disability Index: In-Clinic Visit (Day 12), Median [2]: 0.563
SHAQ Standard Disability Index: Percent Change from Baseline, Mean [2]: 0.00%
SHAQ Standard Disability Index: Percent Change from Baseline, Median [2]: 0.00%
SHAQ Visual Analogue Scale - Pain: Change from Baseline, Mean [2]: −0.100
SHAQ Visual Analogue Scale - Pain: Change from Baseline, Median [2]: 0.000
SHAQ Visual Analogue Scale - Pain: In-Clinic Visit (Day 12), Mean [2]: 1.875
SHAQ Visual Analogue Scale - Pain: In-Clinic Visit (Day 12), Median [2]: 1.950
SHAQ Visual Analogue Scale - Pain: Percent Change from Baseline, Mean [2]: −9.88%
SHAQ Visual Analogue Scale - Pain: Percent Change from Baseline, Median [2]: 0.00%
SHAQ Visual Analogue Scale - Breathing Problems, In-Clinic Visit (Day 12), Mean [3]: 1.575
SHAQ Visual Analogue Scale - Breathing Problems, In-Clinic Visit (Day 12), Median [3]: 0.000
SHAQ Visual Analogue Scale - Finger Ulcers, In-Clinic Visit (Day 12), Mean [3]: 0.275
SHAQ Visual Analogue Scale - Finger Ulcers, In-Clinic Visit (Day 12), Median [3]: 0.000
SHAQ Visual Analogue Scale - Intestinal Problems, In-Clinic Visit (Day 12), Mean [3]: 1.100
SHAQ Visual Analogue Scale - Intestinal Problems, In-Clinic Visit (Day 12), Median [3]: 0.300
SHAQ Visual Analogue Scale - Overall Disease Severity, In-Clinic Visit (Day 12), Mean [3]: 1.825
SHAQ Visual Analogue Scale - Overall Disease Severity, In-Clinic Visit (Day 12), Median [3]: 1.050
SHAQ Visual Analogue Scale - Pain, In-Clinic Visit (Day 12), Mean [3]: 1.875
SHAQ Visual Analogue Scale - Pain, In-Clinic Visit (Day 12), Median [3]: 1.950
SHAQ Visual Analogue Scale - Raynaud's, In-Clinic Visit (Day 12), Mean [3]: 1.925
SHAQ Visual Analogue Scale - Raynaud's, In-Clinic Visit (Day 12), Median [3]: 1.700
SHAQ Overall Severity: Baseline, Mean [4]: 2.667
SHAQ Overall Severity: Baseline, Median [4]: 2.900
SHAQ Overall Severity: Change from Baseline, Mean [4]: −1.633,
SHAQ Overall Severity: Change from Baseline, Median [4]: −1.600
SHAQ Overall Severity: Day 12, Mean [4]: 1.033
SHAQ Overall Severity: Day 12, Median [4]: 1.200
SHAQ Overall Severity: Percent Change from Baseline, Mean [4]: −62.64%
SHAQ Overall Severity: Percent Change from Baseline, Median [4]: −60.00%
SHAQ Standard Disability Index: Baseline, Mean [5]: 0.250
SHAQ Standard Disability Index: Baseline, Median [5]: 0.375
SHAQ Standard Disability Index: Change from Baseline, Mean [5]: −0.125
SHAQ Standard Disability Index: Change from Baseline, Median [5]: −0.125
SHAQ Standard Disability Index: Day 12, Mean [5]: 0.125
SHAQ Standard Disability Index: Day 12, Median [5]: 0.125
SHAQ Standard Disability Index: Percent Change from Baseline, Mean [5]: −50.00%
SHAQ Standard Disability Index: Percent Change from Baseline, Median [5]: −50.00%
Alternative disability index, improvement [6]: 42% improvement
Standard disability index, improvement [6]: 50% improvement
VAS - Breathing problems, improvement [6]: 75% improvement*
VAS - Raynaud's, improvement [6]: 55% improvement
VAS Overall Disease Severity, improvement [6]: 63% improvement
VAS- PAIN, improvement (Cilnidipine 20 mg (n = 3), Table R, baseline 2.17 on a 0-10 VAS): 53% improvement*
SHAQ % change VAS Raynauds [7]: −49%
SHAQ % change in Alternative Disability Index [7]: −42%
SHAQ % change in Pain [7]: −53%
SHAQ % change in Standard Disability Index [7]: −50%
SHAQ % change overall SSc Disease Severity [7]: −63%
SHAQ % improvement in Breathing (median) [7]: 67%
SHAQ % improvement in VAS Digital Ulcers [7]: 35%
SHAQ Visual Analogue Scale - Breathing Problems, Change from Baseline, Mean [8]: −0.475
SHAQ Visual Analogue Scale - Breathing Problems, Change from Baseline, Median [8]: −0.250
SHAQ Visual Analogue Scale - Breathing Problems, Percent Change from Baseline, Mean [8]: 3.73%
SHAQ Visual Analogue Scale - Breathing Problems, Percent Change from Baseline, Median [8]: −17.54%
SHAQ Visual Analogue Scale - Finger Ulcers, Change from Baseline, Mean [8]: −0.933
SHAQ Visual Analogue Scale - Finger Ulcers, Change from Baseline, Median [8]: 0.000
SHAQ Visual Analogue Scale - Finger Ulcers, Percent Change from Baseline, Mean [8]: 35.29%
SHAQ Visual Analogue Scale - Finger Ulcers, Percent Change from Baseline, Median [8]: 35.29%
SHAQ Visual Analogue Scale - Intestinal Problems, Change from Baseline, Mean [8]: 0.150
SHAQ Visual Analogue Scale - Intestinal Problems, Change from Baseline, Median [8]: 0.150
SHAQ Visual Analogue Scale - Intestinal Problems, Percent Change from Baseline, Mean [8]: −10.00%
SHAQ Visual Analogue Scale - Intestinal Problems, Percent Change from Baseline, Median [8]: 30.00%
SHAQ Visual Analogue Scale - Overall Disease Severity, Change from Baseline, Mean [8]: −2.000
SHAQ Visual Analogue Scale - Overall Disease Severity, Change from Baseline, Median [8]: −1.700
SHAQ Visual Analogue Scale - Overall Disease Severity, Percent Change from Baseline, Mean [8]: −64.20%
SHAQ Visual Analogue Scale - Overall Disease Severity, Percent Change from Baseline, Median [8]: −64.44%
SHAQ Visual Analogue Scale - Pain, Change from Baseline, Mean [8]: −0.650
SHAQ Visual Analogue Scale - Pain, Change from Baseline, Median [8]: −0.650
SHAQ Visual Analogue Scale - Pain, Percent Change from Baseline, Mean [8]: −34.56%
SHAQ Visual Analogue Scale - Pain, Percent Change from Baseline, Median [8]: −51.06%
SHAQ Visual Analogue Scale - Raynaud's, Change from Baseline, Mean [8]: −1.200
SHAQ Visual Analogue Scale - Raynaud's, Change from Baseline, Median [8]: −1.050
SHAQ Visual Analogue Scale - Raynaud's, Percent Change from Baseline, Mean [8]: −41.11%
SHAQ Visual Analogue Scale - Raynaud's, Percent Change from Baseline, Median [8]: −38.67%
SHAQ Alternative Disability Index: Change from Baseline, Mean [9]: 0.000
SHAQ Alternative Disability Index: Change from Baseline, Median [9]: −0.063
SHAQ Alternative Disability Index: In-Clinic Visit (Day 12), Mean [9]: 0.219
SHAQ Alternative Disability Index: In-Clinic Visit (Day 12), Median [9]: 0.188
SHAQ Alternative Disability Index: Percent Change from Baseline, Mean [9]: 5.56%
SHAQ Alternative Disability Index: Percent Change from Baseline, Median [9]: −33.33%
SHAQ Standard Disability Index: Change from Baseline, Mean [9]: −0.063
SHAQ Standard Disability Index: Change from Baseline, Median [9]: −0.063
SHAQ Standard Disability Index: In-Clinic Visit (Day 12), Mean [9]: 0.281
SHAQ Standard Disability Index: In-Clinic Visit (Day 12), Median [9]: 0.188
SHAQ Standard Disability Index: Percent Change from Baseline, Mean [9]: −26.67%
SHAQ Standard Disability Index: Percent Change from Baseline, Median [9]: −33.33%
SHAQ Visual Analogue Scale - Pain: Change from Baseline, Mean [9]: −0.650
SHAQ Visual Analogue Scale - Pain: Change from Baseline, Median [9]: −0.650
SHAQ Visual Analogue Scale - Pain: In-Clinic Visit (Day 12), Mean [9]: 1.875
SHAQ Visual Analogue Scale - Pain: In-Clinic Visit (Day 12), Median [9]: 1.400
SHAQ Visual Analogue Scale - Pain: Percent Change from Baseline, Mean [9]: −34.56%
SHAQ Visual Analogue Scale - Pain: Percent Change from Baseline, Median [9]: −51.06%
SHAQ Visual Analogue Scale - Breathing Problems, In-Clinic Visit (Day 12), Mean [10]: 0.850
SHAQ Visual Analogue Scale - Breathing Problems, In-Clinic Visit (Day 12), Median [10]: 0.450
